Like-named read-outs stand apart in the source and are kept apart here.
What was measured:
DR1 = target: T1, DR1 (Homo sapiens, UniProt P21728); test: DR1 agonism EC50 (Example B-1, Table 4); assay type: cell-based
T1 construct: endogenous in cells; host or cells: IPF patient derived fibroblasts
Procedure: cAMP Assay: IPF patient derived fibroblasts are plated in EMEM containing 10% FBS overnight. […] Twenty minutes prior to cell lysis the media is removed and cells are treated with “induction buffer” containing nonselective phosphodiesterase inhibitors and the indicated concentration of compound(s). Luminescence is measured on a Flexstation 3 (Molecular Devices) plate reader.
(§1) Example B-1: Enzyme Assay of Inhibition of YAP/TAZ and DR1

YAP/TAZ = test: Inhibition of YAP/TAZ (Example B-1, Table 4); assay type: cell-based
Excerpt: as §1

[1] = test system: YAP/TAZ nuclear localization in human lung fibroblasts; test: YAP/TAZ nuclear localization in human lung fibroblasts (FIG. 1)
Col1a1 = details: 10 μM; precision cut lung slices cultured for 3 days; aged mice (24 months) injured with bleomycin

T1 sequence (P21728 whole entry): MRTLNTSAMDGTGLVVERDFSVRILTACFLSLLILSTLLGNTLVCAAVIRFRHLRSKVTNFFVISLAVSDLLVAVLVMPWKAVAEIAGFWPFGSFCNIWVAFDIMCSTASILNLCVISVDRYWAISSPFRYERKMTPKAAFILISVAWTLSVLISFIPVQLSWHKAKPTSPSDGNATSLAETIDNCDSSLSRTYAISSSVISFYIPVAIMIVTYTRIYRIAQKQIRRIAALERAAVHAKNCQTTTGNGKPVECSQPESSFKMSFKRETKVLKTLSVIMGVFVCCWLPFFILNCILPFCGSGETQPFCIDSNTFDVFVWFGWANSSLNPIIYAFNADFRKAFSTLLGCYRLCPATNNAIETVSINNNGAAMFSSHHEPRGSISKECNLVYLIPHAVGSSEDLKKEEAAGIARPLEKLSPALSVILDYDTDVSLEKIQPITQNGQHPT

Oc1ccc([C@H]2CNCc3sccc32)cc1O [(R)-4-(4,5,6,7-tetrahydrothieno[2,3-c]pyridin-4-yl)benzene-1,2-diol]
EC50 (DR1; read-out: DR1 EC50): < 1000 nM | IC50 (YAP/TAZ): 1 to 20 µM

Cc1cc2c(cc1O)CN[C@H]1CCc3cc(O)c(O)cc3[C@H]21 (relative stereo) [Compound 3, Trans-(6a,12b)-2-methyl-5,6,6a,7,8,12b-hexahydro-benzo[a]phenanthridine-3,10,11-triol]
inhibition of YAP/TAZ nuclear localization [1]: inhibit YAP/TAZ nuclear localization | expression of Col1a1 (Col1a1): inhibits expression of Col1a1

CN1Cc2sccc2C(c2ccc(O)c(O)c2)C1 (centres unmarked) [4-(6-methyl-4,5,6,7-tetrahydrothieno[2,3-c]pyridin-4-yl)benzene-1,2-diol]
EC50 (DR1; read-out: DR1 EC50): 1000 to 20000 nM | IC50 (YAP/TAZ): 1 to 20 µM

Oc1cc2c(cc1O)[C@@H]1c3ccc(O)c(O)c3CN[C@@H]1CC2 [(6aR,12bR)-5,6,6a,7,8,12b-hexahydrobenzo[a]phenanthridine-3,4,10,11-tetraol]
IC50 (YAP/TAZ): 1 to 20 µM

Oc1cc(C2CNCc3sccc32)cc(Cl)c1O (centres unmarked) [3-chloro-5-(4,5,6,7-tetrahydrothieno[2,3-c]pyridin-4-yl)benzene-1,2-diol]
EC50 (DR1; read-out: DR1 EC50): < 1000 nM | IC50 (YAP/TAZ): 1 to 20 µM

Cc1cc2c(cc1O)CN[C@H]1CCc3cc(O)c(O)cc3[C@H]21 [(6aS,12bR)-2-methyl-5,6,6a,7,8,12b-hexahydrobenzo[a]phenanthridine-3,10,11-triol]
EC50 (DR1): < 1000 nM | IC50 (YAP/TAZ): 1 to 20 µM

Oc1ccc2c(c1)[C@@H]1c3cc(O)c(O)cc3CC[C@H]1NC2 [(6aR,12bS)-5,6,6a,7,8,12b-hexahydrobenzo[a]phenanthridine-2,10,11-triol]
EC50 (DR1): < 1000 nM | IC50 (YAP/TAZ): 1 to 20 µM

COc1c(O)cc(C2CNCc3sccc32)cc1Cl (centres unmarked) [3-chloro-2-methoxy-5-(4,5,6,7-tetrahydrothieno[2,3-c]pyridin-4-yl)phenol]
EC50 (DR1; read-out: DR1 EC50): 1000 to 20000 nM | IC50 (YAP/TAZ): 1 to 20 µM

CCCc1csc2c1[C@H](c1ccc(O)c(O)c1)CNC2 [(S)-4-(3-propyl-4,5,6,7-tetrahydrothieno[2,3-c]pyridin-4-yl)benzene-1,2-diol]
EC50 (DR1; read-out: DR1 EC50): 1000 to 20000 nM | IC50 (YAP/TAZ): 1 to 20 µM

Oc1cc2c(cc1O)[C@H]1c3ccc(O)c(O)c3CN[C@@H]1CC2 [(6aR,12bS)-5,6,6a,7,8,12b-hexahydrobenzo[a]phenanthridine-3,4,10,11-tetraol]
IC50 (YAP/TAZ): 1 to 20 µM

(6aR,12bS)-10,11-dimethoxy-2-methyl-5,6,6a,7,8,12b-hexahydrobenzo[a]phenanthridin-3-ol [Compound 4a]
inhibition of YAP/TAZ nuclear localization [1]: inhibit YAP/TAZ nuclear localization

Oc1ccc(C2CNCc3cnccc32)cc1O (centres unmarked) [4-(1,2,3,4-tetrahydro-2,7-naphthyridin-4-yl)benzene-1,2-diol]
IC50 (YAP/TAZ): 1 to 20 µM

CCCc1csc2c1[C@@H](c1ccc(O)c(O)c1)CNC2 [(R)-4-(3-propyl-4,5,6,7-tetrahydrothieno[2,3-c]pyridin-4-yl)benzene-1,2-diol]
EC50 (DR1; read-out: DR1 EC50): 1000 to 20000 nM | IC50 (YAP/TAZ): 1 to 20 µM

COc1ccc(C2CNCc3sccc32)cc1OC (centres unmarked) [4-(3,4-dimethoxyphenyl)-4,5,6,7-tetrahydrothieno[2,3-c]pyridine]
EC50 (DR1; read-out: DR1 EC50): 1000 to 20000 nM | IC50 (YAP/TAZ): 1 to 20 µM

CCCc1csc2c1C(c1ccc(O)c(O)c1)CNC2 (centres unmarked) [4-(3-propyl-4,5,6,7-tetrahydrothieno[2,3-c]pyridin-4-yl)benzene-1,2-diol]
EC50 (DR1; read-out: DR1 EC50): 1000 to 20000 nM | IC50 (YAP/TAZ): 1 to 20 µM

COc1cc(C2CNCc3sccc32)cc(Cl)c1OC (centres unmarked) [4-(3-chloro-4,5-dimethoxyphenyl)-4,5,6,7-tetrahydrothieno[2,3-c]pyridine]
EC50 (DR1; read-out: DR1 EC50): 1000 to 20000 nM | IC50 (YAP/TAZ): 1 to 20 µM

Oc1ccc([C@@H]2CNCc3sccc32)cc1O [(S)-4-(4,5,6,7-tetrahydrothieno[2,3-c]pyridin-4-yl)benzene-1,2-diol]
EC50 (DR1; read-out: DR1 EC50): < 1000 nM | IC50 (YAP/TAZ): 1 to 20 µM

CCCc1csc2c1C(c1ccc(OC)c(OC)c1)CNC2 (centres unmarked) [4-(3,4-dimethoxyphenyl)-3-propyl-4,5,6,7-tetrahydrothieno[2,3-c]pyridine]
EC50 (DR1; read-out: DR1 EC50): 1000 to 20000 nM | IC50 (YAP/TAZ): 1 to 20 µM

Source: patent US20220267277A1, “DOPAMINE RECEPTOR D1 AGONISTS AND METHODS OF USE” (Sanford Burnham Prebys Medical Discovery Institute, priority 2019, published 2022)
